Source: ChEMBL document CHEMBL3431459, “Roche carnitine palmitoyltransferase modulator screening data (supplementary data associated with the publication CHEMBL2216752)”
Values after ≈ are worked out from the molar mass of the structure shown.

Columns and labels:
[1] = target: T1, Carnitine O-palmitoyltransferase 1, muscle isoform (Homo sapiens, UniProt Q92523); assay: SUPPLEMENTARY: Inhibition of Carnitine palmitoyltransferase 1, muscle isoform; set-up: species or system Muscle tissue
T1 sequence (Q92523 whole entry): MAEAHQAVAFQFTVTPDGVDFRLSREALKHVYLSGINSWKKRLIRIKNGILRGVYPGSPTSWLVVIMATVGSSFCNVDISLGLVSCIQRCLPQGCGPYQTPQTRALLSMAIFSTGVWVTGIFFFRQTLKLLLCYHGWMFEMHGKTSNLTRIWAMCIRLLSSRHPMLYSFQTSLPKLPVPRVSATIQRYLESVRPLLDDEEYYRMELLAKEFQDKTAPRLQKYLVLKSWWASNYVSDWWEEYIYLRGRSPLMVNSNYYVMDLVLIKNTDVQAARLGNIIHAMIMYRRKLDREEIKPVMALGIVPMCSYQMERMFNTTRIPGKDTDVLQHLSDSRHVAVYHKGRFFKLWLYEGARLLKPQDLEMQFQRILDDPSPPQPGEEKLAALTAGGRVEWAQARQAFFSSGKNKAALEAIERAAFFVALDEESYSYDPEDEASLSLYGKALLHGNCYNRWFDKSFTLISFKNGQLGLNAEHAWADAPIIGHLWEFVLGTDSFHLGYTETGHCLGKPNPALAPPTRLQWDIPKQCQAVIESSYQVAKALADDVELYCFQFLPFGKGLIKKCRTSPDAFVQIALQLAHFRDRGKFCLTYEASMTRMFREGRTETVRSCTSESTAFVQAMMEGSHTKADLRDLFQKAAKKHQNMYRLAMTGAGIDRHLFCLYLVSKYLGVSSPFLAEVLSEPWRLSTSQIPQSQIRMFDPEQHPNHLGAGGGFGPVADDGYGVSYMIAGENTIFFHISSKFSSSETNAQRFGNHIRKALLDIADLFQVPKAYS

[2] = target: T2, Carnitine O-palmitoyltransferase 2, mitochondrial (Homo sapiens, UniProt P23786); assay: (§1) SUPPLEMENTARY: Inhibition of Carnitine palmitoyltransferase 2
T2 sequence (P23786 whole entry): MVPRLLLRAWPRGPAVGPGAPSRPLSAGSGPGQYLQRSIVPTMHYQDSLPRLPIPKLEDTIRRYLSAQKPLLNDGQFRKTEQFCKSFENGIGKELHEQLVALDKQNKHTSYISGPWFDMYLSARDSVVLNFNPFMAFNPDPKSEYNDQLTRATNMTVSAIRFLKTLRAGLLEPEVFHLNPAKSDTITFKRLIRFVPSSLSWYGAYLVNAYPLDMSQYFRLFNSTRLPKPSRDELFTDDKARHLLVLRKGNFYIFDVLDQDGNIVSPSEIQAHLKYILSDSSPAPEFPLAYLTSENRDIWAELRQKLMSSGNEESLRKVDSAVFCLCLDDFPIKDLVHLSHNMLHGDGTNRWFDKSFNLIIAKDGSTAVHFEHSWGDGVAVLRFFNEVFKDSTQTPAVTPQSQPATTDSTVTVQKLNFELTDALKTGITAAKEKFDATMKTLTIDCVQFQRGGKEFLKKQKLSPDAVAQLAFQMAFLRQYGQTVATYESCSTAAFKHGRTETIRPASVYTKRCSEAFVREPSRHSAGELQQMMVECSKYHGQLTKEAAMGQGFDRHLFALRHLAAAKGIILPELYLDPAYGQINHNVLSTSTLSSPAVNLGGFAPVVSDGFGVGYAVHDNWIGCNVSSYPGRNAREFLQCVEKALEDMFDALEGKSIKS

[3] = target: T3, Carnitine O-palmitoyltransferase 2, mitochondrial (Rattus norvegicus, UniProt P18886); assay: as §1
T3 sequence (P18886 whole entry): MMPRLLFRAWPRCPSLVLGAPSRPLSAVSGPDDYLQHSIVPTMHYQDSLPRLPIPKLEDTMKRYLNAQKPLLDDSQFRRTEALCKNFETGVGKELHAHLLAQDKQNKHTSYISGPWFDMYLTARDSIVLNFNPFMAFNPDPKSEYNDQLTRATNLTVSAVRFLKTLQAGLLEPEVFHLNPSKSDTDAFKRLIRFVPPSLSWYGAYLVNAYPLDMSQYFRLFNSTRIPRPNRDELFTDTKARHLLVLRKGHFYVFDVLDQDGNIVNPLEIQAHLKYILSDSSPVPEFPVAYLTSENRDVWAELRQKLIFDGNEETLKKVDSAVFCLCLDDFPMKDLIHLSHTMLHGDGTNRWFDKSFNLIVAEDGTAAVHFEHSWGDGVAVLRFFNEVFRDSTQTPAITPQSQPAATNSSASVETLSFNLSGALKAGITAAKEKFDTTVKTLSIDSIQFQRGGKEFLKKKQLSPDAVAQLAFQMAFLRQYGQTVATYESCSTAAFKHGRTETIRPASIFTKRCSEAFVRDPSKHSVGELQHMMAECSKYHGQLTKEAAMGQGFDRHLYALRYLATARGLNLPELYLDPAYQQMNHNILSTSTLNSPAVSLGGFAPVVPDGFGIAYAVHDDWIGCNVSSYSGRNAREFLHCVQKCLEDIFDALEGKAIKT

[4] = SUPPLEMENTARY: Lipophilicity (log D) Determination by high-throughput shake-flask; type: physicochemical; details: octanol/water
[5] = target: T4, Carnitine O-palmitoyltransferase 1, liver isoform (Homo sapiens, UniProt P50416); assay: (§2) SUPPLEMENTARY: Inhibition of Carnitine palmitoyltransferase 1, liver isoform
T4 sequence (P50416 whole entry): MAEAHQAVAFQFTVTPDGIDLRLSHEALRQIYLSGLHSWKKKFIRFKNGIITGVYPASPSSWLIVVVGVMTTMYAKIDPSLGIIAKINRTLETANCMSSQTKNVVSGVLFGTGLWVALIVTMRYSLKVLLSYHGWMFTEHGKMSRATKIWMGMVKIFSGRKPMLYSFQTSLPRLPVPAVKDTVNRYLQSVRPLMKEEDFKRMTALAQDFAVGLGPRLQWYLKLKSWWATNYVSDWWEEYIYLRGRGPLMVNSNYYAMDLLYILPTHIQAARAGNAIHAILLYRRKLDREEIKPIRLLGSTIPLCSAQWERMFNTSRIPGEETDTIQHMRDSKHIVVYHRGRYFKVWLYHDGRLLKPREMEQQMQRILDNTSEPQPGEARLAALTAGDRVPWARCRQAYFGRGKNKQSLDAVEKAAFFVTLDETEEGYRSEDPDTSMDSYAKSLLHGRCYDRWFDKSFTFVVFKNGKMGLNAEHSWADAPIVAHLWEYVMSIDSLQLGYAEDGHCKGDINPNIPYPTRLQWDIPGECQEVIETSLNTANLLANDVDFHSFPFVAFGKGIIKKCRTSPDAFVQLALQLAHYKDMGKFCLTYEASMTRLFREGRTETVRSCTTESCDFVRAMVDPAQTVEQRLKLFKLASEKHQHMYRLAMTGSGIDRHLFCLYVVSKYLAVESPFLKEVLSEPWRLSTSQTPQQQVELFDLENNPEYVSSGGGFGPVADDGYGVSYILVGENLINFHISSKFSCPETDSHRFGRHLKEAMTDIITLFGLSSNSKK

[6] = target: T5, Carnitine O-palmitoyltransferase 1, liver isoform (Rattus norvegicus, UniProt P32198); assay: as §2
T5 sequence (P32198 whole entry): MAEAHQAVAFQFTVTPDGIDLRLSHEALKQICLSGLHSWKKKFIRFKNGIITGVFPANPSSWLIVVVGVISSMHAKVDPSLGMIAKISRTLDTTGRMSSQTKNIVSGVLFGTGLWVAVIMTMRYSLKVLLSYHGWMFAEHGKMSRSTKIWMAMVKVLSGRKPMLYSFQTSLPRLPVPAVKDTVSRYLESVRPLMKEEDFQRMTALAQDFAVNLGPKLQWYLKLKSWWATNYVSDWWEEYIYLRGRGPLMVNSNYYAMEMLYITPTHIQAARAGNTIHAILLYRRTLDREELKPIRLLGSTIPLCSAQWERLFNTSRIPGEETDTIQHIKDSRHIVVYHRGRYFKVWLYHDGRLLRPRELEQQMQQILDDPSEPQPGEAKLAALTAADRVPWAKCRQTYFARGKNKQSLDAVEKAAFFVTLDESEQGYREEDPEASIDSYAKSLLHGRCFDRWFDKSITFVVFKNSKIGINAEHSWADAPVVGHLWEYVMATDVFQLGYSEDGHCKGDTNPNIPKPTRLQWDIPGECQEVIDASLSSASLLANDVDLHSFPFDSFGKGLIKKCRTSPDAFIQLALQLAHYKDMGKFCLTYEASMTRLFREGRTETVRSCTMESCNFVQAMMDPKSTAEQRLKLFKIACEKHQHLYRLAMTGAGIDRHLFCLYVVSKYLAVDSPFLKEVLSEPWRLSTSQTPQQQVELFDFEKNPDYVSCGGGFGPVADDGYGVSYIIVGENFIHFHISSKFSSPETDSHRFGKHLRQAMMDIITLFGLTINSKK

[7] = SUPPLEMENTARY: PAMPA permeability assay; type: physicochemical; details: read-out: Permeability
[8] = SUPPLEMENTARY: Lyophilisation Solubility Assay (LYSA); type: physicochemical; details: read-out: Kinetic_solubility

Row | SMILES | IC50 [1] | IC50 [2] | IC50 [3] | logD [4] | IC50 [5] | IC50 [6] | Papp [7] | solubility kinetic [8]
1 | COc1ccc(Cl)cc1S(=O)(=O)N1CCSc2ccc(C(=O)Nc3nc(CC(=O)O)cs3)cc21 | 992 nM | > 100000 nM | > 100000 nM | 0.39 | 11.6 nM | 20.4 nM | 3.65 ×10⁻⁶ cm/s | 5 µg/mL (≈ 9.26 µM)
2 | COc1ccc(Cl)cc1S(=O)(=O)N1CCc2ccc(C(=O)Nc3ccc(CC(=O)O)cc3)cc21 | 2130 nM | > 100000 nM | > 100000 nM | 0.33 | 97.4 nM | 32.3 nM | 4.09 ×10⁻⁶ cm/s | 532 µg/mL (≈ 1060 µM)
3 | COc1ccc(Cl)cc1S(=O)(=O)N1CCc2ccc(C(=O)Nc3nc(CC(=O)O)cs3)cc21 | 1310 nM | > 100000 nM | > 100000 nM | 0.17 | 22.3 nM | 15.2 nM | 3.25 ×10⁻⁶ cm/s | 48 µg/mL (≈ 94.5 µM)
4 | O=C(O)c1ccc(NC(=O)c2ccc3ccn(S(=O)(=O)c4cccc(Cl)c4)c3c2)cc1 | 26500 nM | 2290 nM | 3280 nM | 2.99 | 16.7 nM | 9.7 nM | 0.6 ×10⁻⁶ cm/s | 1 µg/mL (≈ 2.2 µM)
5 | Cc1cc(C)cc(S(=O)(=O)n2ccc3ccc(C(=O)Nc4ccc(C(=O)O)cc4)cc32)c1 | > 100000 nM | 1940 nM | 6480 nM | > 3 | 35.3 nM | 29.1 nM | 1.46 ×10⁻⁶ cm/s | 1 µg/mL (≈ 2.23 µM)
6 | O=C1COc2ccc(-c3nc([C@H]4CCCCN4C(=O)COc4ccccc4)no3)cc2N1 | > 100000 nM | > 100000 nM | > 100000 nM | 3.12 | 35.8 nM | 89.3 nM | 3.74 ×10⁻⁶ cm/s | 35 µg/mL (≈ 80.6 µM)
7 | COc1ccc(Cl)cc1CN1C(=O)C(C)(C)c2ccc(C(=O)Nc3nc(CC(=O)O)cs3)cc21 | 535 nM | > 100000 nM | > 100000 nM | 1.21 | 46.8 nM | 19.7 nM | 0.96 ×10⁻⁶ cm/s | 418 µg/mL (≈ 836 µM)
8 | COc1ccc(Cl)cc1CN1C(=O)C(C)(C)c2ccc(C(=O)Nc3ccc(C(=O)O)cc3)cc21 | 2170 nM | 5510 nM | 9030 nM | 1.83 | 67.1 nM | 126 nM | 0.94 ×10⁻⁶ cm/s | 136 µg/mL (≈ 284 µM)
9 | COc1ccc(Cl)cc1S(=O)(=O)N1CCOc2ccc(C(=O)Nc3ccc(CC(=O)O)cc3)cc21 | 827 nM | > 100000 nM | > 100000 nM | 0.11 | 96.8 nM | 70.2 nM | 1.86 ×10⁻⁶ cm/s | 6 µg/mL (≈ 11.6 µM)
10 | CCN1C(=O)CC(C)(C)c2ccc(-c3nc([C@H]4CCCCN4C(=O)COc4ccccc4)no3)cc21 | > 100000 nM | > 100000 nM | > 100000 nM | > 3 | 168 nM | 172 nM | 0.4 ×10⁻⁶ cm/s | < 1 µg/mL
